What all share (assay): Ambit kinase profiling, competition binding
For one assay, the target named is T1, CAMKIIα (Homo sapiens, UniProt Q9UQM7).
T1 construct: purchased Ambit Biosciences (KINOMEscan)
To be noted: for competition: CAMKIIα, 10 µM. The protocol: (§1) Also included in the kinase profile are four isoforms of PKC (δ, ε, η, θ) and eight isoforms of CAMKs (CAMKIα, δ, γ; CAMKIIα, β, δ, γ; CAMK4).
(§2) The global kinase profiling experiment was performed by Ambit Biosciences.

The target in another assay is T2, CDK5 (Homo sapiens, UniProt Q00535).
T2 construct: purchased Ambit Biosciences (KINOMEscan)
On the procedure:
as §1, §2

The target in another assay is T3, EGFR(E746-A750del) (Homo sapiens, UniProt P00533, DEL746-750).
T3 construct: purchased Ambit Biosciences (KINOMEscan)
As to conditions: for % Competition: 10 µM. On the procedure: as §1, §2

Assay [1] concerns the target T4, EGFR(L747-E749del, A750P) (Homo sapiens, UniProt P00533, A750P/DEL747-749).
T4 construct: purchased Ambit Biosciences (KINOMEscan)
To be noted: for % Competition: 10 µM. On the procedure: as §1, §2

The target of a further assay is T5, EPHA3 (Homo sapiens, UniProt P29320).
T5 construct: purchased Ambit Biosciences (KINOMEscan)
T5 sequence (P29320 21-983): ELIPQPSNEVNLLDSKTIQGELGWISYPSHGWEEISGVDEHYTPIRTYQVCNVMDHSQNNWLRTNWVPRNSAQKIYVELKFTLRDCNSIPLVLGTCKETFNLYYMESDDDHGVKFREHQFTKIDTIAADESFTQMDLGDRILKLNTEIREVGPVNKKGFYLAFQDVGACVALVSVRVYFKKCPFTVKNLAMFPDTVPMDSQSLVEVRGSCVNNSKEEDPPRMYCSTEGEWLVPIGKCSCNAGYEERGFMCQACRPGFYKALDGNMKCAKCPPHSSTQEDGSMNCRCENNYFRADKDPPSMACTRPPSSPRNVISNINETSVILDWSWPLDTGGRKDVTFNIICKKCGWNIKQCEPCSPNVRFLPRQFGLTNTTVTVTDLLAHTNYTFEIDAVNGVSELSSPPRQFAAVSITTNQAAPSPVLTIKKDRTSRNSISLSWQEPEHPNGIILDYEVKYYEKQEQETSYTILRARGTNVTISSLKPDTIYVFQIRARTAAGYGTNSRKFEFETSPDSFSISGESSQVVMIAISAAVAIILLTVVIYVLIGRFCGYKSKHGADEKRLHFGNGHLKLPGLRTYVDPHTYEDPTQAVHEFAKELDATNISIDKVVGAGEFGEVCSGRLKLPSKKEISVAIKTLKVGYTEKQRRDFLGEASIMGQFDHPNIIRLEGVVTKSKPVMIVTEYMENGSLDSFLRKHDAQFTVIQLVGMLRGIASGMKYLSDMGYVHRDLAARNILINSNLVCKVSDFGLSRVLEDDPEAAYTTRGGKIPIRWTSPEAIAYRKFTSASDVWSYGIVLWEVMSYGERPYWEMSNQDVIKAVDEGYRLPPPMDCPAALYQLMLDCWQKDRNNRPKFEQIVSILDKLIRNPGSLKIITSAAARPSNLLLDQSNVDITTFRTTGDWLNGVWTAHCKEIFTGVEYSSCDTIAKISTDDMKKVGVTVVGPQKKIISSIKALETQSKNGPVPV
The protocol:
as §1, §2

The next assay concerns the target T6, ERK1 (Homo sapiens, UniProt P27361).
T6 construct: purchased Ambit Biosciences (KINOMEscan)
The protocol:
as §1, §2

A further assay addresses T7, ERK8 (Homo sapiens, UniProt Q8TD08).
T7 construct: purchased Ambit Biosciences (KINOMEscan)
T7 sequence (Q8TD08 1-544): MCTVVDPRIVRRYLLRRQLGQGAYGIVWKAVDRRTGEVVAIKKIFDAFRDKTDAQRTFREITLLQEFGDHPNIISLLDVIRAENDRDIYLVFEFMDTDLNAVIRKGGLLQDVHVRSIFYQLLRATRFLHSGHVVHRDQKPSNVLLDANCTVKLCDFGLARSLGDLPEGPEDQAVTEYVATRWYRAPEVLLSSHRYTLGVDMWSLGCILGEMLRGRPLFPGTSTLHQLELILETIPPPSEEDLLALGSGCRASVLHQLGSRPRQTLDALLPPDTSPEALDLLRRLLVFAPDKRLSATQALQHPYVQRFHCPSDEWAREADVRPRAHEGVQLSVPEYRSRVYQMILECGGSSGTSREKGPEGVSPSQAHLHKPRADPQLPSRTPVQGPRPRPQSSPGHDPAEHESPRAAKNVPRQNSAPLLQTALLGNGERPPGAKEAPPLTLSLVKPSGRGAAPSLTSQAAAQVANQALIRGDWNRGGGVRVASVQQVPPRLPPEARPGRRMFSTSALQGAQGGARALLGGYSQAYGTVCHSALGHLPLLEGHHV
The protocol:
as §1, §2

For a further assay, the target named is T8, KIT(V559D) (Homo sapiens, UniProt P10721, V559D).
T8 construct: purchased Ambit Biosciences (KINOMEscan)
The protocol: as §1, §2

In another assay the target is T9, MARK2 (Homo sapiens, UniProt Q7KZI7).
T9 construct: purchased Ambit Biosciences (KINOMEscan)
The protocol: as §1, §2

Another assay has as its target T10, MEK6 (Homo sapiens, UniProt P52564).
T10 construct: purchased Ambit Biosciences (KINOMEscan)
T10 sequence (P52564 1-334): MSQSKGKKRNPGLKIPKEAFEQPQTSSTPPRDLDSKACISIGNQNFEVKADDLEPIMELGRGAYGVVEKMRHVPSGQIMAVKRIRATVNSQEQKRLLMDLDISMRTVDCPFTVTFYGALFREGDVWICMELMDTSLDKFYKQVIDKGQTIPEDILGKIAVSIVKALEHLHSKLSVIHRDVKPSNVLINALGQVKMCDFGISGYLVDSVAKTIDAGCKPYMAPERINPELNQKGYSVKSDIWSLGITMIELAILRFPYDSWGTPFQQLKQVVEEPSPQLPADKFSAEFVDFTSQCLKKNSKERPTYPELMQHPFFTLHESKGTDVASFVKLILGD
The protocol:
as §1, §2

Another assay has as its target T11, MST4 (Homo sapiens, UniProt Q9P289).
T11 construct: purchased Ambit Biosciences (KINOMEscan)
The protocol:
as §1, §2

In another assay the target is T12, SYK (Homo sapiens, UniProt P43405).
T12 construct: purchased Ambit Biosciences (KINOMEscan)
To be noted: for % Competition: 10 µM. The protocol: as §1, §2

A further assay concerns the target T13, TGFBR2 (Homo sapiens, UniProt P37173).
T13 construct: purchased Ambit Biosciences (KINOMEscan)
On the procedure:
as §1, §2

Like-named read-outs stand apart in the source and are kept apart here. A value given as a limit tells only on which side of the number the result lay.

T8 sequence (P10721 26-976 V559D): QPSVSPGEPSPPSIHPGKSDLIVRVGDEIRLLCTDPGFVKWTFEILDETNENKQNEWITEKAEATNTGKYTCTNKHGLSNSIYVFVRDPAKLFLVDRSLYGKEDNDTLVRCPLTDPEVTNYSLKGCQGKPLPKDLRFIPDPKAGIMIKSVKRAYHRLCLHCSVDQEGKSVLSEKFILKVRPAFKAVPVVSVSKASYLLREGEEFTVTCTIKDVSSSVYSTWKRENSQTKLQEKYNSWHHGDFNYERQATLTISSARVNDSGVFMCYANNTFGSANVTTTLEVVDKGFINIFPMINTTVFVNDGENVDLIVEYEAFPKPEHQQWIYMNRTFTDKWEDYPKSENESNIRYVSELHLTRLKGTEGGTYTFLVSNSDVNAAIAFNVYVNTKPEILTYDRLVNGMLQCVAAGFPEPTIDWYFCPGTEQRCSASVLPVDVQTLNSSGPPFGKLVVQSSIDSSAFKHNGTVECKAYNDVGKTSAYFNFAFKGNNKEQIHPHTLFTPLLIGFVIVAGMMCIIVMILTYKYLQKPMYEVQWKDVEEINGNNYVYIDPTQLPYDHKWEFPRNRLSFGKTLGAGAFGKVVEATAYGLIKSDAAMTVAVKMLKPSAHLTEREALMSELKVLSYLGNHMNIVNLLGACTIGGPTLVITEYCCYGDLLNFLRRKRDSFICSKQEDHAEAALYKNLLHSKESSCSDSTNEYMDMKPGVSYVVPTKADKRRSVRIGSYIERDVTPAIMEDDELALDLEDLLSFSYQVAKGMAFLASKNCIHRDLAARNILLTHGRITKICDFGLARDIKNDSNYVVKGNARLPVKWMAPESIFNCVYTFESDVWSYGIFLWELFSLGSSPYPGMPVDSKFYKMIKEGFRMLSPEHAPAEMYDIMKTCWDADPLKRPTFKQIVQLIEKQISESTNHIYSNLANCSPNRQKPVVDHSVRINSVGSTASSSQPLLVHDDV
T9 sequence (Q7KZI7 whole entry): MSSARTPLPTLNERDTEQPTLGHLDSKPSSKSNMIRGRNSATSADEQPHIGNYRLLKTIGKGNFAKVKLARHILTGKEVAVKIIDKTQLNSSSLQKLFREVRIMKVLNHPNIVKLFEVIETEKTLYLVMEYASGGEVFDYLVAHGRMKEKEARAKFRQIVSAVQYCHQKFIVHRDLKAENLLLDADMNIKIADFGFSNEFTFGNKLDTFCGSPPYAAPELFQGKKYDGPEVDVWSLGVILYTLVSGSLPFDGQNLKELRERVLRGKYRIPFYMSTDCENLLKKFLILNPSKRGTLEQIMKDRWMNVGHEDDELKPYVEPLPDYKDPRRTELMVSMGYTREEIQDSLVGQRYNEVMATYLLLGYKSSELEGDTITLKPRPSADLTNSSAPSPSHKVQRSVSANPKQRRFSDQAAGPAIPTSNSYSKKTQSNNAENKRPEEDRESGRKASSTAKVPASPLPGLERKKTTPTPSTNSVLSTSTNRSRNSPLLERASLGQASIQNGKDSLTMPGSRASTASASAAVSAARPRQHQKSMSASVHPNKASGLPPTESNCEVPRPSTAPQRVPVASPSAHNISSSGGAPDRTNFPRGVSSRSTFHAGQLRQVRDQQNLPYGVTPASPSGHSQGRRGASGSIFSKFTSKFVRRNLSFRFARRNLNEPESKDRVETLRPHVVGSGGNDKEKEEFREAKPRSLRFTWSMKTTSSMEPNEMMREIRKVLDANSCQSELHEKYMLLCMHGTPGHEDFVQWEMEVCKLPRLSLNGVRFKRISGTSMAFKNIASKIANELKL
T1 sequence (Q9UQM7 whole entry): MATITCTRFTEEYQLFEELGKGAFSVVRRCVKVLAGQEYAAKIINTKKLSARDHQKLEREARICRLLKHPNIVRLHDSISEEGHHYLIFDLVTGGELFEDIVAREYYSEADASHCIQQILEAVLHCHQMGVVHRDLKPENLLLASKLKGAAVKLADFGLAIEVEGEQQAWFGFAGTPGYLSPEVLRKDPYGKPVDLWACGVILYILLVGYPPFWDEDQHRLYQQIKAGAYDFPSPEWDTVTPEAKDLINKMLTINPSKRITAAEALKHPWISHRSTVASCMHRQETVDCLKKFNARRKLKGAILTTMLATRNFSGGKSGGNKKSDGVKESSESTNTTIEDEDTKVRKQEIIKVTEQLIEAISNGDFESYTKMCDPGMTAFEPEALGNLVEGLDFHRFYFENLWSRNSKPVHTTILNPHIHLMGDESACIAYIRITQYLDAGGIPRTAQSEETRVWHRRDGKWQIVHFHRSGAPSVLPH
T6 sequence (P27361 whole entry): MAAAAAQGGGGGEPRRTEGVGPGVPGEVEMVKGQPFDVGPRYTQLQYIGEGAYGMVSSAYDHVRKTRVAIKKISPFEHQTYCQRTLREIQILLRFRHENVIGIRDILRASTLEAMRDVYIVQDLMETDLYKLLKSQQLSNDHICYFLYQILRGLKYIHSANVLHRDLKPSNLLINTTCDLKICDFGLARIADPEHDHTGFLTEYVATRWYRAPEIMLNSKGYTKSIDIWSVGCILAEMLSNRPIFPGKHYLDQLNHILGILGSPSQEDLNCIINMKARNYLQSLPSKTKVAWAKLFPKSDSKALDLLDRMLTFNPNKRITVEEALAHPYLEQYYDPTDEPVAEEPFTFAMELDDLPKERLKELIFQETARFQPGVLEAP
T13 sequence (P37173 23-567): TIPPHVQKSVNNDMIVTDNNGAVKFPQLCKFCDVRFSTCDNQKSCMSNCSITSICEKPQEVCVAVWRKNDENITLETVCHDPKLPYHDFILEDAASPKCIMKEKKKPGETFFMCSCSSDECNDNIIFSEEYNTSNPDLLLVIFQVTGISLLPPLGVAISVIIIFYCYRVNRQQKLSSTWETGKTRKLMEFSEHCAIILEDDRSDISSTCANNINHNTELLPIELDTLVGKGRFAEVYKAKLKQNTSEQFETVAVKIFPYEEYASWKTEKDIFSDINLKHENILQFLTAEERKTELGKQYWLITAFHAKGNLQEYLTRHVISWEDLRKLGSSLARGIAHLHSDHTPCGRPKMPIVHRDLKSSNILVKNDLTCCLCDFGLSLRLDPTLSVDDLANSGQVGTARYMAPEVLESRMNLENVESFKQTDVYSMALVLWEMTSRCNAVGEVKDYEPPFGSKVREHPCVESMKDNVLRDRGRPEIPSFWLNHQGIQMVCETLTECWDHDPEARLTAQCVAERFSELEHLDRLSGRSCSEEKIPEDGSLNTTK
T11 sequence (Q9P289 whole entry): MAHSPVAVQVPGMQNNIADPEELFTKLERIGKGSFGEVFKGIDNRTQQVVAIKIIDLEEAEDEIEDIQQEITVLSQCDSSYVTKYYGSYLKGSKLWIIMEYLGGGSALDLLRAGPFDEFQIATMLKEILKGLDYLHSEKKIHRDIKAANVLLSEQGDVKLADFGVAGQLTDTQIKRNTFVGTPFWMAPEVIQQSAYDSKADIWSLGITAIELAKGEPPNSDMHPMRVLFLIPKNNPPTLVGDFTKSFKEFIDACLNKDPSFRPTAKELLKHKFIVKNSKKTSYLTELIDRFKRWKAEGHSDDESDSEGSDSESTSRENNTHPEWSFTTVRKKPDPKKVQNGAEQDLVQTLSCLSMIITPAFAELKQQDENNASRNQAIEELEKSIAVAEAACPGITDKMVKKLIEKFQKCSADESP
T2 sequence (Q00535 whole entry): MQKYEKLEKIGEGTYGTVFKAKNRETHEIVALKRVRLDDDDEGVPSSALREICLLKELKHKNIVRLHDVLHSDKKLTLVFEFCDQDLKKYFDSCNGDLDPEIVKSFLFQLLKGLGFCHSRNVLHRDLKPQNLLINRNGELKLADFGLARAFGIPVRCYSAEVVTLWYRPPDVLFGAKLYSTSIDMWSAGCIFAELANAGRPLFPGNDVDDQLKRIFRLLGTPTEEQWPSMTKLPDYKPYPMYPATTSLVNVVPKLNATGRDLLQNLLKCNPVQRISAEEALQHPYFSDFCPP

In turn, `CC(O)CNc1cc(-c2[nH]c3cccnc3c2-c2ccc(F)cc2)ccn1` (stereo not drawn) [Compound 140] yielded a competition on CAMKIIα of under 50%. Further, the inhibition at 10 µM at CDK5 (read-out: % Competition), on EPHA3 (read-out: % Competition), at ERK1 (read-out: % Competition), on ERK8 (read-out: % Competition), at KIT(V559D) (read-out: % Competition) and at MARK2 (read-out: % Competition) was under 50% each time. Also, the inhibition at 10 µM on MEK6 (read-out: % Competition), at MST4 (read-out: % Competition) and on TGFBR2 (read-out: % Competition) was under 50% throughout. The “% Competition” value at EGFR(E746-A750del) is 90%; in assay [1] it was 90%; on SYK, under 50%.

Take `Fc1ccc(-c2c(-c3ccncc3)[nH]c3nccnc23)cc1` [RO1155697-000-005]: the inhibition at 10 µM at CAMKIIα (CAMK2A, compound concentration 10 uM, read-out: Percent Competition) was under 50%; at CDK5 (CDK5, compound concentration 10 uM, read-out: Percent Competition), 92%; at EPHA3 (EPHA3, compound concentration 10 uM, read-out: Percent Competition) it was 85%; at ERK1 (ERK1, compound concentration 10 uM, read-out: Percent Competition), 80%; at ERK8 (ERK8, compound concentration 10 uM, read-out: Percent Competition), 98%; on KIT(V559D) (KIT(V559D), compound concentration 10 uM, read-out: Percent Competition), 75%. Moreover, the inhibition at 10 µM was 77% on MARK2 (MARK2, compound concentration 10 uM, read-out: Percent Competition); 66% at MEK6 (MEK6, compound concentration 10 uM, read-out: Percent Competition); 97% on MST4 (MST4, compound concentration 10 uM, read-out: Percent Competition); 98% at TGFBR2 (TGFBR2, compound concentration 10 uM, read-out: Percent Competition). For the same molecule, the entries for the “Percent Competition” value (on EGFR(E746-A750del) (compound concentration 10 uM); in assay [1] (compound concentration 10 uM); at SYK (compound concentration 10 uM)) were 96%, 98% and 72%, respectively.

`Fc1ccc(-c2c(-c3ccncc3)[nH]c3nccnc23)cc1` [Compound 122] had a competition at CAMKIIα of under 50%. In addition, the inhibition at 10 µM was 92% at CDK5 (CDK5, 10 µM, read-out: % Competition); 85% on EPHA3 (EPHA3, 10 µM, read-out: % Competition); 80% on ERK1 (ERK1, 10 µM, read-out: % Competition); 98% on ERK8 (ERK8, 10 µM, read-out: % Competition); 75% at KIT(V559D) (KIT(V559D), 10 µM, read-out: % Competition); 77% on MARK2 (MARK2, 10 µM, read-out: % Competition). Further, the inhibition at 10 µM was found to be 66% on MEK6 (MEK6, 10 µM, read-out: % Competition); 97% at MST4 (MST4, 10 µM, read-out: % Competition); 98% on TGFBR2 (TGFBR2, 10 µM, read-out: % Competition). Besides, the “% Competition” value at EGFR(E746-A750del) came to 96%; in assay [1] it was 98%; at SYK, 72%.
